The record followed here is patent US20040058940A1, “Pharmaceutical formulation comprising thienopyrimidines and antithrombotics, calcium antagonists, prostaglandins or prostaglandin derivatives (2)” (priority 2000, published 2004).

In general, melting point refers to the temperature of the solid-liquid transition.

On to `COc1ccc(CNc2nc(CCC(=O)O)nc3sc4ccccc4c23)cc1Cl` [Example 2, 3-[4-(3-chloro-4-methoxybenzylamino)-benzothieno-[2,3-d]-pyrimidin-2-yl]propionic acid], for which the melting point was determined as 218 °C.
`COC(=O)c1ccc(-c2nc(NCc3ccc(OC)c(Cl)c3)c3c(n2)sc2ccccc23)cc1` [Example 3, methyl 4-[4-(3-chloro-4-methoxybenzylamino)-[1]-benzothieno-[2,3-d]-pyrimidin-2-yl]benzoate] displayed a melting point of 203 to 204 °C.
